Experimental data: US20050090529A1, “3,5 Disubstituted indazole compounds with nitrogen-bearing 5-membered heterocycles, pharmaceutical compositions, and methods for mediating or inhibiting cell proliferation” (PFIZER INC, priority 2003, published 2005)

System: Cyclin-dependent kinase
Test: Cyclin-dependent kinase inhibition, % inhibition at 10 nM (library Examples 99-270)
Format: biochemical
Settings: 10 nM compound
Experimental: Cyclin-dependent kinase activity was measured by quantifying the enzyme-catalyzed, time-dependent incorporation of radioactive phosphate from [^32P]ATP or [^33P]ATP into a protein substrate. Unless noted otherwise, assays were performed in 96-well plates in a total volume of 50 μL, in the presence of 10 mM HEPES (N-[2-hydroxyethyl]piperazine-N′-[2-ethanesulfonic acid]) (pH 7.4), 10 mM MgCl2, 25 μM adenosine triphosphate (ATP), 1 mg/mL ovalbumin, 5 μg/mL leupeptin, 1 mM dithiothreitol, 10 mM beta-glycerophosphate, 0.1 mM sodium vanadate, 1 mM sodium fluoride, 2.5 mM ethylene glycol-bis(β-aminoethyl ethKer)-N,N,N′N′-tetraacetic acid (EGTA), 2% (v/v) dimethylsulfoxide, and 0.03-0.4 μCi [^32/33P]ATP per reaction. Reactions were initiated with enzyme, incubated at 30° C., and terminated after 20 minutes by the addition of ethylenediaminetetraacetic acid (EDTA) to 250 mM. The phosphorylated substrate was then captured on a nitrocellulose or phosphocellulose membrane using a 96-well filtration manifold, and unincorporated radioactivity was removed by repeated washing with 0.85% phosphoric acid. Radioactivity was quantified by exposing the dried membranes to a phosphorimager.
Results of assays performed on compounds, which include the specific examples described above are provided in Examples 99-274 above, and in Table 1 below. Unless indicated otherwise in a particular entry, the units and assays used are as indicated in the applicable column of the table.

% Inhib @ 10 nM | SMILES
44% | CCNCc1cncc(-c2ccc3[nH]nc(-c4ncc(C(=O)N5CCN(CC(=O)NC(C)C)CC5)[nH]4)c3c2)c1C [Example 118, 2-(4-{[2-(5-{5-[(ethylamino)methyl]-4-methylpyridin-3-yl}-1H-indazol-3-yl)-1H-imidazol-5-yl]carbonyl}piperazin-1-yl)-N-isopropylacetamide]
74% | CCNCc1cncc(-c2ccc3[nH]nc(-c4ncc(C(=O)N5CCC(c6cccc(O)c6)CC5)[nH]4)c3c2)c1C [Example 191, 3-(1-{[2-(5-{5-[(ethylamino)methyl]-4-methylpyridin-3-yl}-1H-indazol-3-yl)-1H-imidazol-5-yl]carbonyl}piperidin-4-yl)phenol]
58% | CCNCc1cncc(-c2ccc3[nH]nc(-c4ncc(C(=O)N(CCOC)CCOC)[nH]4)c3c2)c1C [Example 232, 2-(5-{5-[(ethylamino)methyl]-4-methylpyridin-3-yl}-1H-indazol-3-yl)-N,N-bis(2-methoxyethyl)-1H-imidazole-5-carboxamide]
74% | CCNCc1cncc(-c2ccc3[nH]nc(-c4ncc(C(=O)N5CCN(c6cccc7ccccc67)CC5)[nH]4)c3c2)c1C [Example 236, ethyl({4-methyl-5-[3-(5-{[4-(1-naphthyl)piperazin-1-yl]carbonyl}-1H-imidazol-2-yl)-1H-indazol-5-yl]pyridin-3-yl}methyl)amine]
81% | CCNCc1cncc(-c2ccc3[nH]nc(-c4ncc(C(=O)NCCc5ccccn5)[nH]4)c3c2)c1C [Example 102]
57% | CCNCc1cncc(-c2ccc3[nH]nc(-c4ncc(C(=O)N5CCN(Cc6ccc(OC)cc6)CC5)[nH]4)c3c2)c1C [Example 181, ethyl({5-[3-(5-{[4-(4-methoxybenzyl)piperazin-1-yl]carbonyl}1H-imidazol-2-yl)-1H-indazol-5-yl]-4-methylpyridin-3-yl}methyl)amine]
69% | C=C(C)CN(CC)C(=O)c1cnc(-c2n[nH]c3ccc(-c4cncc(CNCC)c4C)cc23)[nH]1 [Example 207]
69% | CCNCc1cncc(-c2ccc3[nH]nc(-c4ncc(C(=O)NCC(N)=O)[nH]4)c3c2)c1C [Example 109, N-(2-amino-2-oxoethyl)-2-(5-{5-[(ethylamino)methyl]-4-methylpyridin-3-yl}-1H-indazol-3-yl)-1H-imidazole-5-carboxamide]
30% | CCNCc1cncc(-c2ccc3[nH]nc(-c4ncc(C(=O)N5CCCN(Cc6ccc(F)cc6)CC5)[nH]4)c3c2)c1C [Example 222, ethyl({5-[3-(5-{[4-(4-fluorobenzyl)-1,4-diazxepan-1-yl]carbonyl}1H-imidazol-2-yl)-1H-indazol-5-yl]-4-methylpyridin-3-yl}methyl)amine]
59% | CCNCc1cncc(-c2ccc3[nH]nc(-c4ncc(C(=O)N[C@H](C(=O)NC)[C@@H](C)O)[nH]4)c3c2)c1C [Example 176, 2-(5-{5-[(ethylamino)methyl]-4-methylpyridin-3-yl}-1H-indazol-3-yl)-N-{(1S,2R)-2-hydroxy-1-[(methylamino)carbonyl]propyl}-1H-imidazole-5-carboxamide]
54% | CCNCc1cncc(-c2ccc3[nH]nc(-c4ncc(C(=O)NCc5cccnc5)[nH]4)c3c2)c1C [Example 101]
37% | CCNCc1cncc(-c2ccc3[nH]nc(-c4ncc(C(=O)NCCSCc5ccc(CN(C)C)o5)[nH]4)c3c2)c1C [Example 155, N-{2-[({5-[(dimethylamino)methyl]-2-furyl}methyl)thio]ethyl}-2-(5-{5-[(ethylamino)methyl]-4-methylpyridin-3-yl}-1H-indazol-3-yl)-1H-imidazoie-5-carboxamide]
41% | CCNCc1cncc(-c2ccc3[nH]nc(-c4ncc(C(=O)N5CCC(c6ccnc(NCC)n6)CC5)[nH]4)c3c2)c1C [Example 252, N-ethyl-4-(1-{[2-(5-{5-[(ethylamino)methyl]-4-methylpyridin-3-yl}-1H-indazol-3-yl)-1H-imidazol-5-yl]carbonyl}piperidin-4-yl)pyrimidin-2-amine]
67% | CCNCc1cncc(-c2ccc3[nH]nc(-c4ncc(C(=O)N5CCOCC5)[nH]4)c3c2)c1C [Example 152, ethyl[(4-methyl-5-{3-[5-(morpholin-4-ylcarbonyl)-1H-imidazol-2-yl]-1H-indazol-5-yl}pyridin-3-yl)methyl]amine]
57% | CCNCc1cncc(-c2ccc3[nH]nc(-c4ncc(C(=O)NCCC5=CCCCC5)[nH]4)c3c2)c1C [Example 131]
69% | CCNCc1cncc(-c2ccc3[nH]nc(-c4ncc(C(=O)N5CCc6c(C(=O)NC)csc6C5)[nH]4)c3c2)c1C [Example 259, 6-{[2-(5-{5-[(ethylamino)methyl]-4-methylpyridin-3-yl}-1H-indazol-3-yl)-1H-imidazol-5-yl]carbonyl}-N-methyl-4,5,6,7-tetrahydrothieno[2,3-c]pyridine-3-carboxamlde]
40% | CCNCc1cncc(-c2ccc3[nH]nc(-c4ncc(C(=O)NCc5nnc(-c6ccccc6OC)o5)[nH]4)c3c2)c1C [Example 255, 2-(5-{5-[(ethylamino)methyl]-4-methylpyridin-3-yl}-1H-indazol-3-yl)-N-{[5-(2-methoxyphenyl)-1,3,4-oxadiazol-2-yl]methyl}-1H-imidazole-5-carboxamide]
40% | CCNCc1cncc(-c2ccc3[nH]nc(-c4ncc(C(=O)NCCN5CCOCC5)[nH]4)c3c2)c1C [Example 103, 2-(5-{5-[(ethylamino)methyl]-4-methylpyridin-3-yl}-1H-indazol-3-yl)-N-(2-morpholin-4-ylethyl)-1H-imidazole-5-carboxamide]
25% | CCNCc1cncc(-c2ccc3[nH]nc(-c4ncc(C(=O)NCCN(C)CCCCCO)[nH]4)c3c2)c1C [Example 199, 2-(5-{5-[(ethylamino)methyl]-4-methylpyridin-3-yl}-1H-indazol-3-yl)-N-{2-[(5-hydroxypentyl)(methyl)amino]ethyl}-1H-imidazole-5-carboxamide]
80% | CCNCc1cncc(-c2ccc3[nH]nc(-c4ncc(C(=O)N5CCC(O)(c6ccccc6)CC5)[nH]4)c3c2)c1C [Example 112, 1-{[2-(5-{5-[(ethylamino)methyl]-4-methylpyridin-3-yl}-1H-indazol-3-yl)-1H-imidazol-5-yl]carbonyl}-4-phenylpiperidin-4-ol]
22% | C=CCN(CC=C)CCN1CCN(C(=O)c2cnc(-c3n[nH]c4ccc(-c5cncc(CNCC)c5C)cc34)[nH]2)CC1 [Example 146, diallyl[2-(4-{[2-(5-{5-[(ethylamino)methyl]-4.-methylpyridin-3-yl}-1H-indazol-3-yl)-1H-imidazol-5-yl]carbonyl}piperazin-1-yl)ethyl]amine]
45% | CCNCc1cncc(-c2ccc3[nH]nc(-c4ncc(C(=O)NCCc5c[nH]c6cc(OC)ccc56)[nH]4)c3c2)c1C [Example 120]

SMILES | % Inhib @ 10 nM
CCNCc1cncc(-c2ccc3[nH]nc(-c4ncc(C(=O)NCCC#N)[nH]4)c3c2)c1C [Example 154, N-(2-cyanoethyl)-2-(5-{5-[(ethylamino)methyl]-4-methylpyridin-3-yl}-1H-indazxol-3-yl)-1H-imidazole-5-carboxamide] | 71%
